In article PMC11821258 (Molecules, 2025):

Key:
[1] = test system: human biphenotypic B myelomonocytic leukemia MV4-11; test: Antiproliferative activity, MTT assay, 72 h; format: cell-based; conditions: for IC50: Homo sapiens, MV4-11, 72 h, MTT, read-out: IC50; for SI: IC50 MCF-10A / IC50 MV4-11
Method: (§1) The tested compounds were dissolved in DMSO (dimethyl sulfoxide) to a concentration of 10 mg/mL and then were diluted in the culture medium to reach the final concentrations. The cells were plated in 384-well plates at a density of 1 × 10^3 or 2 × 10^3 (MCF-10A) cells per well (Greiner Bio One, Kremsmünster, Austria) and in 96-well plates (MV4-11 cell; Sarstedt, Nümbrecht, Germany) at a density of 5 × 10^3 cells per well. After 24 h of incubation, the tested compounds were added at concentrations in the range of 100–0.03 µg/mL and, after the next 72 h of exposure to tested agents, the cytotoxic effect of all agents was examined using the MTT (MV4-11) or SRB assay, described previously. The values of IC50 (inhibitory concentration 50%) were calculated separately for each experiment (repeated 3–5 times) using the Prolab-3 system which is based on Cheburator 0.4 software. Doxorubicin was applied as a reference drug. The IC50 values in µg/mL were calculated to µM.
This assay was used against MV4-11 leukemia cells and was performed after 72 h of exposure of the tested agents to the cells. For each well, 20 µL of the MTT [3-(4,5-dimethylthiazol-2-yl)-2,5-diphenyl tetrazolium bromide] solution (5 mg/mL, Merck, Darmstadt, Germany) was added. After the incubation time (4 h at 37 °C), 80 µL of the lysing buffer was added to each well (mixture of 225 mL of DMF (dimethylformamide) Avantor, Poland; 67.5 g of SDS, Merck, Darmstadt, Germany; and 275 mL of distilled water). After the next 24 h, the absorbance of the samples was measured at a 570 nm wavelength on a Synergy H4 photometer (BioTek Instruments, Winooski, VT, USA). The absorbance of wells without the cells was the background.

[2] = test system: human breast cancer MCF-7; test: Antiproliferative activity, SRB assay, 72 h; format: cell-based; conditions: for IC50: Homo sapiens, MCF7, MCF-7, 72 h, SRB, read-out: IC50; for SI: IC50 MCF-10A / IC50 MCF-7
Method: as §1
(§2) The cytotoxicity assay was performed after the cultured cells were exposed to the tested agents for 72 h using the authomatic Washer dyspenser EL406, BioTek. At the first step, the washer dispenser collected 40 µL of cultured medium from each wells, and then the cells were fixed by gently layering 20 µL per well of cold 25% trichloroacetic acid to each well. The incubation time was 40 min and then the plates were washed with tap water. The cells were stained with 20 µL per well of 0.1% sulforhodamine B (SRB, Merck, Darmstadt, Germany) for 30 min. Unbound sulforhodamine B was removed by washing it with 1% acetic acid. The protein-bound dye was extracted in 30 min using 70 µL per well of 10 mM unbuffered Tris base (Merck, Darmstadt, Germany). The absorbance (at 540 nm) was measured on a Synergy H4 photometer (BioTek Instruments, Winooski, VT, USA). The absorbance of the wells without the cells was the background.

[3] = test system: human colon cancer HCT116 cells; test: Antiproliferative activity, SRB assay, 72 h; format: cell-based; conditions: for IC50: Homo sapiens, HCT-116, HCT116, 72 h, SRB, read-out: IC50; for SI: IC50 MCF-10A / IC50 HCT116
Method: as §1, §2

[4] = test system: human lung carcinoma A549; test: Antiproliferative activity, SRB assay, 72 h; format: cell-based; conditions: for IC50: Homo sapiens, A549, 72 h, SRB, read-out: IC50; for SI: IC50 MCF-10A / IC50 A549
Method: as §1, §2

[5] = test system: human melanoma Hs294T cells; test: Antiproliferative activity, SRB assay, 72 h; format: cell-based; conditions: for IC50: Homo sapiens, Hs 294T, Hs249T (so in the source), 72 h, SRB, read-out: IC50; for SI: IC50 MCF-10A / IC50 Hs249T (so in the source)
Method: as §1, §2

[6] = test system: human pancreas cancer MiaPaca-2 cells; test: Antiproliferative activity, SRB assay, 72 h; format: cell-based; conditions: for IC50: Homo sapiens, MIA PaCa-2, MiaPaca-1 (so in the source), 72 h, SRB, read-out: IC50; for SI: IC50 MCF-10A / IC50 MiaPaca-1 (so in the source)
Method: as §1, §2

[7] = test system: human prostate adenocarcinoma PC-3; test: Antiproliferative activity, SRB assay, 72 h; format: cell-based; conditions: for IC50: Homo sapiens, PC-3, 72 h, SRB, read-out: IC50; for SI: IC50 MCF-10A / IC50 PC-3
Method: as §1, §2

[8] = test system: human normal epithelial cells from the mammary gland (MCF-10A); test: Cytotoxicity on non-tumorigenic cells, SRB assay, 72 h; format: cell-based; conditions: Homo sapiens, MCF-10A normal cells, SRB, read-out: IC50
Method: as §1, §2

MV4-11 cells [9] = test: Cell cycle analysis by flow cytometry (propidium iodide); format: cell-based, human; conditions: MV4-11, 72 h; for number of death cells: about 1.5 × IC50; for number of cells in the G2/M and S phases: about 1.5 × IC50, statistically significant
Method: After incubation, the cells were collected and counted with a hemocytometer, and the 5×10^5 cells were washed twice in cold PBS (phosphate-buffered saline) and fixed for 24 h in 70% ethanol at −20 °C. Then, the cells were washed twice in PBS and incubated with 0.5 mL of RNAse (8 μg/mL, Thermo Fisher, Waltham, MA, USA) at 37 °C for 1 h. The cells were stained for 30 min with propidium iodide (final concentration: 50 μg/mL, Merck, Darmstadt, Germany) at 4 °C and the cellular DNA content was analyzed by conducting flow cytometry using a BD LSRFortessa cytometer (BD Bioscience, San Jose, CA, USA). Compounds at each concentration were tested at least three times independently. The obtained results were analyzed using Flowing software 2.5.1 (Cell Imaging Core, Turku Centre for Biotechnology, University of Turku and Åbo Akademi University, Finland).

MV4-11 cells [10] = test: Apoptosis determination via Annexin V and PI staining; format: cell-based, human; conditions: MV4-11, 72 h, higher concentrations
Method: Camptothecin at a concentration of 0.05 uM was used as a positive control. After incubation, the cells were collected and counted with a hemocytometer, and 1×10^5 cells were washed twice with PBS. APC-Annexin V (Becton Dickinson, Pharmingen, Franklin Lakes, NJ, USA) was dissolved to the concentration of […] in a binding buffer (10 mM HEPES/NaOH, pH 7.4; 150 mM NaCl; 5 mM KCl; 1 mM MgCl2; and 1.8 mM CaCl2) (HIIET, Wrocław, Poland), and the cells were suspended in 200 µL of this solution. After 15 min of the incubation in the dark at room temperature, 20 µL of propidium iodide (PI) solution (0.02 mg/mL) was added. Data acquisition was performed by conducting flow cytometry using a BD LSRFortessa cytometer (BD Bioscience, San Jose, CA, USA). The compounds were tested at least three times independently. Results were analyzed using Flowing software 2.5.1 (Turku, Finland). […] Double-negative cells were live cells, PI+/Annexin V+ were late apoptotic cells, PI-/Annexin V+ were early apoptotic cells, and PI+/Annexin V- were necrotic cells.

[11] = test system: tested cell lines (MV4-11, A549, MCF-7, PC-3, HCT116, MiaPaca-2, Hs294T); test: Antiproliferative activity, range over the tested cell lines; format: cell-based; conditions: Homo sapiens; range across cell lines, 72 h
Method: as §1, with “The values of IC50 (inhibitory concentration 50%) were calculated separately for each experiment (repeated 3–5 times) using the Prolab-3 system which is based on Cheburator 0.4 software. Doxorubicin was applied as a reference drug.” left out
This assay was used against MV4-11 leukemia cells and was performed after 72 h of exposure of the tested agents to the cells. […] After the next 24 h, the absorbance of the samples was measured at a 570 nm wavelength on a Synergy H4 photometer (BioTek Instruments, Winooski, VT, USA). The absorbance of wells without the cells was the background.
The cytotoxicity assay was performed after the cultured cells were exposed to the tested agents for 72 h using the authomatic Washer dyspenser EL406, BioTek. […] The absorbance (at 540 nm) was measured on a Synergy H4 photometer (BioTek Instruments, Winooski, VT, USA). […]

With `C#CC(=O)OC[C@]12CC[C@@H](C(=C)C)C1C1CCC3[C@@]4(C)CC[C@H](OC(=O)CCC(=O)O)C(C)(C)C4CC[C@@]3(C)[C@]1(C)CC2` (stereo partly shown) [Compound 6a] the IC50 [1] was 2.57 ± 1.01 µM, the IC50 [2] was 16 ± 1.01 µM and the SI [2] was 3.09. It also gave an IC50 [3] of 20.7 ± 9.08 µM, an SI [3] of 2.39 and an IC50 [4] of 12.9 ± 0.67 µM. For the same compound, the SI [4] was 3.82, the IC50 [5] was 3.53 ± 0.67 µM and the SI [5] was 14. It also gave an IC50 [6] of 18.5 ± 9.75 µM, an SI [6] of 2.67 and an IC50 [7] of 0.41 ± 0.08 µM. The SI [7] was 121, the IC50 [8] was 49.4 ± 17.8 µM and the “number of death cells” value (MV4-11 cells [9]) was “increased”. For the same compound, the “number of cells in the G2/M and S phases” value (MV4-11 cells [9]) was “decreased” and the induction of apoptosis (MV4-11 cells [10]) was “induction of apoptosis was observed”.
Work on `C=C(C)[C@@H]1CC[C@]2(CO)CC[C@]3(C)C(CCC4[C@@]5(C)CC[C@H](OC(=O)CC(C)(C)CC(=O)O)C(C)(C)C5CC[C@]43C)C12` (stereo partly shown) [Compound 4] yielded an IC50 [1] of 4.77 ± 0.44 µM, an SI [1] of 6.60 and an IC50 [2] of 12.1 ± 3.08 µM. The SI [2] was 2.60, the IC50 [3] was 11.1 ± 2.56 µM and the SI [3] was 2.83. It also gave an IC50 [4] of 3.76 ± 2.05 µM, an SI [4] of 8.36 and an IC50 [5] of 24.4 ± 8.89 µM. It also gave an SI [5] of 1.29, an IC50 [6] of 22.6 ± 6.5 µM and an SI [6] of 1.39. For the same compound, the IC50 [7] was 19.2 ± 3.76 µM, the SI [7] was 1.64 and the IC50 [8] was 31.5 ± 1.71 µM. The IC50 [11] was 3.76 to 24.4 µM and the induction of apoptosis (MV4-11 cells [10]) was “induction of apoptosis was observed”.
`C#CCCC(=O)OC[C@]12CC[C@@H](C(=C)C)C1C1CCC3[C@@]4(C)CC[C@H](OC(=O)CC(C)(C)CC(=O)O)C(C)(C)C4CC[C@@]3(C)[C@]1(C)CC2` (stereo partly shown) [Compound 4b] showed an IC50 [1] of 3.19 ± 1.29 µM, an SI [1] of 10.20 and an IC50 [2] of 11.7 ± 2.41 µM. It also gave an SI [2] of 2.78, an IC50 [3] of 7.82 ± 2.86 µM and an SI [3] of 4.17. For the same compound, the IC50 [4] was 4.06 ± 1.05 µM, the SI [4] was 8.04 and the IC50 [5] was 10.7 ± 1.5 µM. It also gave an SI [5] of 3.06, an IC50 [6] of 24.5 ± 2.56 µM and an SI [6] of 1.33. It also gave an IC50 [7] of 11.6 ± 4.51 µM, an SI [7] of 2.82 and an IC50 [8] of 32.6 ± 2.41 µM. For the same compound, the “number of death cells” value (MV4-11 cells [9]) was “increased”, the “number of cells in the G2/M and S phases” value (MV4-11 cells [9]) was “decreased” and the induction of apoptosis (MV4-11 cells [10]) was “induction of apoptosis was observed”.
